# From the OligoGym collection
# HELM strings list units from the 5' end as sugar, base in round brackets, then linkage (d deoxyribose, r ribose, m 2'-O-methyl, p phosphodiester). Strings are as the collection lists them; they lack the last nucleoside at the 3' end of the tested compound. [moe] = 2'-O-(2-methoxyethyl) (MOE); [sp] = phosphorothioate linkage; [m5C] = 5-methylcytosine
# Molecular target: GFAP
# Assay: mouse, dose not given
# Conditions: ASO
row,Substance,3 h FOB score
1,RNA1{[moe](A)[sp].[moe](G)p.[moe](T)p.[moe](A)p.[moe](T)[sp].d(T)[sp].d(A)[sp].d([m5C])[sp].d([m5C])[sp].d(T)[sp].d([m5C])[sp].d(T)[sp].d(A)[sp].[moe]([m5C])p.[moe](T)p.[moe](A)[sp].[moe](G)}$$$$ (last 3' nucleoside missing),3 score 0-7
2,RNA1{[moe]([m5C])[sp].[moe](A)p.[moe](G)p.[moe]([m5C])p.[moe](A)[sp].d(T)[sp].d(T)[sp].d(T)[sp].d(G)[sp].d(T)[sp].d([m5C])[sp].d(T)[sp].d(T)[sp].d(T)[sp].d(A)[sp].[moe](T)p.[moe](T)p.[moe](T)[sp].[moe](T)}$$$$ (last 3' nucleoside missing),2 score 0-7
3,RNA1{[moe](A)[sp].[moe](G)p.[moe](G)p.[moe](G)p.[moe](T)[sp].d(G)[sp].d(G)[sp].d([m5C])[sp].d(T)[sp].d(T)[sp].d([m5C])[sp].d(A)[sp].d(T)[sp].d([m5C])[sp].d(T)[sp].[moe](G)p.[moe]([m5C])p.[moe](T)[sp].[moe](T)}$$$$ (last 3' nucleoside missing),2 score 0-7
4,RNA1{[moe](G)[sp].[moe](A)p.[moe](G)p.[moe](T)p.d(G)[sp].d(T)[sp].d(G)[sp].d(T)[sp].d(A)[sp].d(T)[sp].d(T)[sp].d(A)[sp].d(G)[sp].d(G)[sp].[moe](A)p.[moe](T)p.[moe]([m5C])p.[moe]([m5C])[sp].[moe]([m5C])}$$$$ (last 3' nucleoside missing),4 score 0-7
5,RNA1{[moe](T)[sp].[moe](T)p.[moe](G)p.[moe](T)p.[moe](G)[sp].d(A)[sp].d(T)[sp].d(T)[sp].d(T)[sp].d(T)[sp].d([m5C])[sp].d([m5C])[sp].d([m5C])[sp].[moe]([m5C])p.[moe](G)p.[moe](T)[sp].[moe]([m5C])}$$$$ (last 3' nucleoside missing),2 score 0-7
6,RNA1{[moe](G)[sp].[moe]([m5C])p.[moe](A)p.[moe](G)p.d(T)[sp].d(A)[sp].d(T)[sp].d(T)[sp].d(A)[sp].d([m5C])[sp].d([m5C])[sp].d(T)[sp].d([m5C])[sp].d(T)[sp].[moe](A)p.[moe]([m5C])p.[moe](T)p.[moe](A)[sp].[moe](G)}$$$$ (last 3' nucleoside missing),1 score 0-7
7,RNA1{[moe](G)[sp].[moe](T)p.[moe]([m5C])p.[moe](A)p.[moe]([m5C])[sp].d(A)[sp].d(T)[sp].d(T)[sp].d([m5C])[sp].d(A)[sp].d([m5C])[sp].d(T)[sp].d(A)[sp].d(A)[sp].d(T)[sp].[moe](A)p.[moe](T)p.[moe](T)[sp].[moe](T)}$$$$ (last 3' nucleoside missing),0 score 0-7
8,RNA1{[moe]([m5C])[sp].[moe](T)p.[moe](T)p.[moe](T)p.[moe](A)p.[moe](T)p.d(T)[sp].d(T)[sp].d(T)[sp].d(T)[sp].d([m5C])[sp].d([m5C])[sp].d(T)[sp].d([m5C])[sp].d(A)[sp].d(G)[sp].[moe]([m5C])p.[moe](G)[sp].[moe](A)}$$$$ (last 3' nucleoside missing),1 score 0-7
9,RNA1{[moe](G)[sp].[moe](G)p.[moe](T)p.[moe](G)p.[moe]([m5C])p.d(T)[sp].d(T)[sp].d(T)[sp].d(T)[sp].d(G)[sp].d([m5C])[sp].d([m5C])[sp].d([m5C])[sp].d([m5C])[sp].d([m5C])[sp].[moe](T)p.[moe](G)p.[moe](T)[sp].[moe](A)}$$$$ (last 3' nucleoside missing),3 score 0-7
10,RNA1{[moe](A)[sp].[moe]([m5C])p.[moe]([m5C])p.[moe](T)p.[moe]([m5C])[sp].d([m5C])[sp].d(A)[sp].d(T)[sp].d([m5C])[sp].d(T)[sp].d([m5C])[sp].d(T)[sp].d(G)[sp].d(G)[sp].d([m5C])[sp].[moe](A)p.[moe](A)p.[moe]([m5C])[sp].[moe](A)}$$$$ (last 3' nucleoside missing),6 score 0-7
11,RNA1{[moe]([m5C])[sp].[moe](T)p.[moe](T)p.[moe](G)p.d(T)[sp].d(G)[sp].d(A)[sp].d(T)[sp].d(T)[sp].d(T)[sp].d(T)[sp].d([m5C])[sp].d([m5C])[sp].d([m5C])[sp].[moe]([m5C])p.[moe](G)p.[moe](T)p.[moe]([m5C])[sp].[moe](T)}$$$$ (last 3' nucleoside missing),0 score 0-7
12,RNA1{[moe](A)[sp].[moe](G)p.[moe]([m5C])p.[moe]([m5C])p.[moe](T)[sp].d(G)[sp].d(G)[sp].d(T)[sp].d(T)[sp].d(A)[sp].d(G)[sp].d([m5C])[sp].d([m5C])[sp].[moe](T)p.[moe](T)p.[moe](T)[sp].[moe]([m5C])}$$$$ (last 3' nucleoside missing),4 score 0-7
13,RNA1{[moe](T)[sp].[moe](G)p.[moe](G)p.[moe](T)p.[moe](G)p.[moe]([m5C])p.d(T)[sp].d(T)[sp].d(T)[sp].d(T)[sp].d(G)[sp].d([m5C])[sp].d([m5C])[sp].d([m5C])[sp].d([m5C])[sp].d([m5C])[sp].[moe](T)p.[moe](G)[sp].[moe](T)}$$$$ (last 3' nucleoside missing),1 score 0-7
14,RNA1{[moe](T)[sp].[moe](G)p.[moe]([m5C])p.[moe]([m5C])p.[moe](A)[sp].d(T)[sp].d(T)[sp].d(T)[sp].d(A)[sp].d(T)[sp].d([m5C])[sp].d(T)[sp].d(G)[sp].[moe](T)p.[moe](G)p.[moe]([m5C])[sp].[moe](T)}$$$$ (last 3' nucleoside missing),3 score 0-7
15,RNA1{[moe](G)[sp].[moe](A)p.[moe](A)p.[moe](T)p.[moe](G)[sp].d(G)[sp].d(T)[sp].d(G)[sp].d(A)[sp].d(T)[sp].d([m5C])[sp].d([m5C])[sp].d(G)[sp].d(G)[sp].d(T)[sp].[moe](T)p.[moe]([m5C])p.[moe](T)[sp].[moe]([m5C])}$$$$ (last 3' nucleoside missing),5 score 0-7
16,RNA1{[moe](G)[sp].[moe](T)p.[moe](G)p.[moe](A)p.[moe](G)[sp].d(G)[sp].d([m5C])[sp].d(T)[sp].d(T)[sp].d(T)[sp].d(T)[sp].d(G)[sp].d(A)[sp].d(G)[sp].d(A)[sp].[moe](T)p.[moe](A)p.[moe](T)[sp].[moe]([m5C])}$$$$ (last 3' nucleoside missing),5 score 0-7
17,RNA1{[moe](A)[sp].[moe]([m5C])p.[moe](T)p.[moe](A)p.d(T)[sp].d([m5C])[sp].d(T)[sp].d(A)[sp].d(G)[sp].d(G)[sp].d(A)[sp].d(T)[sp].d(T)[sp].d(T)[sp].[moe](G)p.[moe](G)p.[moe]([m5C])p.[moe](A)[sp].[moe](G)}$$$$ (last 3' nucleoside missing),2 score 0-7
18,RNA1{[moe](A)[sp].[moe](G)p.[moe](T)p.[moe]([m5C])p.[moe](A)p.[moe](G)p.d([m5C])[sp].d([m5C])[sp].d(T)[sp].d(G)[sp].d(G)[sp].d(T)[sp].d(T)[sp].d(A)[sp].d(G)[sp].d([m5C])[sp].[moe]([m5C])p.[moe](T)[sp].[moe](T)}$$$$ (last 3' nucleoside missing),3 score 0-7
19,RNA1{[moe](A)[sp].[moe]([m5C])p.[moe]([m5C])p.[moe](T)p.[moe]([m5C])[sp].d([m5C])[sp].d([m5C])[sp].d(T)[sp].d(G)[sp].d(A)[sp].d([m5C])[sp].d([m5C])[sp].d(T)[sp].d(G)[sp].d(T)[sp].[moe]([m5C])p.[moe](T)p.[moe](A)[sp].[moe](T)}$$$$ (last 3' nucleoside missing),3 score 0-7
20,RNA1{[moe](T)[sp].[moe](T)p.[moe](T)p.[moe](G)p.[moe](G)p.d(T)[sp].d(G)[sp].d([m5C])[sp].d(T)[sp].d(T)[sp].d(T)[sp].d(T)[sp].d(G)[sp].d([m5C])[sp].d([m5C])[sp].[moe]([m5C])p.[moe]([m5C])p.[moe]([m5C])[sp].[moe](T)}$$$$ (last 3' nucleoside missing),2 score 0-7
21,RNA1{[moe](T)[sp].[moe]([m5C])p.[moe](A)p.[moe](G)p.[moe]([m5C])[sp].d([m5C])[sp].d(T)[sp].d(G)[sp].d(G)[sp].d(T)[sp].d(T)[sp].d(A)[sp].d(G)[sp].[moe]([m5C])p.[moe]([m5C])p.[moe](T)[sp].[moe](T)}$$$$ (last 3' nucleoside missing),3 score 0-7
22,RNA1{[moe](G)[sp].[moe](G)p.[moe](T)p.[moe](G)p.[moe](A)[sp].d(G)[sp].d(T)[sp].d(T)[sp].d(T)[sp].d([m5C])[sp].d(T)[sp].d(T)[sp].d(G)[sp].d(T)[sp].d(T)[sp].[moe](A)p.[moe](G)p.[moe](T)[sp].[moe](T)}$$$$ (last 3' nucleoside missing),7 score 0-7
23,RNA1{[moe](G)[sp].[moe]([m5C])p.[moe]([m5C])p.[moe](A)p.[moe](G)p.[moe](T)p.d(G)[sp].d(T)[sp].d([m5C])[sp].d(T)[sp].d(T)[sp].d([m5C])[sp].d(A)[sp].d([m5C])[sp].d(T)[sp].d(T)[sp].[moe](T)p.[moe](G)[sp].[moe]([m5C])}$$$$ (last 3' nucleoside missing),1 score 0-7
24,RNA1{[moe](A)[sp].[moe](T)p.[moe](T)p.[moe](T)p.[moe](A)[sp].d(A)[sp].d([m5C])[sp].d(A)[sp].d(T)[sp].d(T)[sp].d(A)[sp].d(A)[sp].d(G)[sp].d(A)[sp].d(G)[sp].[moe]([m5C])p.[moe](A)p.[moe](G)[sp].[moe](G)}$$$$ (last 3' nucleoside missing),4 score 0-7
25,RNA1{[moe](G)[sp].[moe](G)p.[moe]([m5C])p.[moe](T)p.[moe](T)[sp].d(T)[sp].d(T)[sp].d(G)[sp].d(A)[sp].d(G)[sp].d(A)[sp].d(T)[sp].d(A)[sp].d(T)[sp].d([m5C])[sp].[moe](T)p.[moe](T)p.[moe](G)[sp].[moe](T)}$$$$ (last 3' nucleoside missing),5 score 0-7
26,RNA1{[moe](T)[sp].[moe](T)p.[moe](T)p.[moe](G)p.[moe](A)[sp].d(G)[sp].d(A)[sp].d(T)[sp].d(A)[sp].d(T)[sp].d([m5C])[sp].d(T)[sp].d(T)[sp].[moe](G)p.[moe](T)p.[moe](G)[sp].[moe](A)}$$$$ (last 3' nucleoside missing),3 score 0-7
